From patent publication US20080176957A1, “PRESERVATIVE COMPOSITIONS COMPRISING RENEWABLY-BASED, BIODEGRADABLE 1,3-PROPANEDIOL” (priority 2006, published 2008)
Like-named read-outs stand apart in the source and are kept apart here.

Columns and labels:
[1] = Solubility of compounds and common preservatives in Bio-PDO and PG; format: physicochemical
Excerpt: Cosmetic preservative blends need a broad range of protection against gram positive and negative bacteria, yeasts and molds. In cosmetics, solubility is also important. Clear solutions are preferred to emulsions, suspensions or dispersions. […] Other preservatives or a mixture of preservatives can be used with Bio-PDO™, such as choloracetamide sodium benzoate, 5-bromo-5-nitro-1,3-dioxane, butyl paraben, ethyl paraben, isobutyl paraben, iodopropynyl butylcarbamate, and 2,4,4′-trichloro-2′-[…].

[2] = test system: skin; conditions: background statement, Kinnunen et al. 1991; cited from earlier work
[3] = test system: humans; test: Second human study of irritation or delayed contact hypersensitivity, Bio-PDO vs PG (Example 3); format: in vivo
Excerpt: A second study to determine the potential of biologically-derived 1,3-propanediol and PG, diluted to concentrations of 25%, 50%, and 75% (pH 4, 7 and 9 tested) to cause irritation or delayed contact hypersensitivity in humans.

[4] = test system: humans; test: Human repeated patch test for irritation or delayed contact hypersensitivity (Example 2); format: in vivo; conditions: diluted with D.I. water to 5%, 25% and 50%, nine 24-hour induction patches and challenge
Excerpt: The purpose of this study was to determine the potential of biologically-derived 1,3-propanediol, diluted to concentrations of 5%, 25%, and 50%, to cause irritation or delayed contact hypersensitivity in humans. The method employed in carrying out this test, described below, was similar to that described in “Appraisal of the Safety of Chemicals in Foods, Drugs and Cosmetics” by […] and published by the Association of Food and Drug Officials of the United States, the entirety of which is incorporated herein by reference.
Test Panel: The test involved the application of the test article to the upper arms of a group of 112 volunteer panelists. The panelists ranged from 16 to 71 years of age. One hundred and five panelists completed the study. Prior to the initiation of the study, all panelists were in good general health and free of any visible skin disease or anomaly in the area to be patched. Each panelist was required to read, understand and sign an informed consent statement. […]

Compound: CCO [Ethanol]
- Solubility in Bio-PDO ™ [1]: Soluble
- Solubility in PG [1]: Soluble

Compound: CC(O)CO (centres unmarked) [PG, propylene glycol, reference compound]
- Skin irritation and sensitization [2]: is a skin irritant and skin sensitizer
- Dermal irritation ([3]; in vivo, pH 7): produced dermal irritation at all three concentrations

Compound: O=C(O)c1ccccc1O [Salicyclic acid]
- Solubility in Bio-PDO ™ ([1]; 10 Wt % in Bio-PDO (Table 2)): Soluble
- Solubility in PG ([1]; 10 Wt % in PG (Table 2)): Soluble
- Solubility in Bio-PDO ™ ([1]; 15 Wt % in Bio-PDO (Table 2)): Soluble
- Solubility in PG ([1]; 15 Wt % in PG (Table 2)): Soluble
- Solubility in Bio-PDO ™ ([1]; 20 Wt % in Bio-PDO (Table 2)): Not Soluble
- Solubility in PG ([1]; 20 Wt % in PG (Table 2)): Soluble

Compound: OCCCO [Bio-PDO™, 1,3-propanediol]
- Dermal irritation or sensitization reactions ([3]; humans, 25, 50 and 75% at pH 7, or 75% at pH 4 and 9): did not produce any clinically significant dermal irritation or sensitization reactions
- Skin irritation, fatiguing or sensitization [4]: not to be a skin irritant, fatiguing agent, or sensitizing agent

Compound: CC(C)O [IPA]
- Solubility in Bio-PDO ™ ([1]; 50 Wt % in Bio-PDO (Table 1)): Soluble
- Solubility in PG ([1]; 50 Wt % in PG (Table 1)): Soluble

Compound: Oc1cc(Cl)ccc1Oc1ccc(Cl)cc1Cl [Irgasan]
- Solubility in Bio-PDO ™ ([1]; 20 Wt % in Bio-PDO (Table 2)): Soluble
- Solubility in PG ([1]; 20 Wt % in PG (Table 2)): Soluble

Compound: OCC(O)CO [Glycerol]
- Solubility in Bio-PDO ™ [1]: Soluble
- Solubility in PG [1]: Soluble

Compound: OCCCCO [1,4-Butanediol]
- Solubility in Bio-PDO ™ ([1]; 50 Wt % in Bio-PDO (Table 1)): Soluble
- Solubility in PG ([1]; 50 Wt % in PG (Table 1)): Soluble
